Measurements taken from patent US20260226073A1 (AURIGENE ONCOLOGY LIMITED, priority 2023, published 2026).

How the values were obtained:
[1] = target: T1, human recombinant CBL-b (human Biotin CBL-b recombinant protein a.a. 39-426) (Homo sapiens, UniProt Q13191); assay: Biochemical assay for CBL-b inhibition (ligand displacement TR-FRET); format: binding; settings: 50 nM CBL-b, 0.3 μM Bodipy FL-Probe, read-out: IC50 (CBL-b inhibition, group)
T1 construct: human Biotin CBL-b recombinant protein a.a; 39-426; Biotin (biotinylated); made in house
Outline: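 Biotinylated CBL-b (a.a. 39-426, 50 nM final) pre-incubated with compound 60 min at RT in HEPES/NaCl/Triton/BSA/TCEP buffer, then Bodipy FL probe (0.3 μM final) 60 min, then terbium-streptavidin 60 min. TR-FRET read at 665/615 nm; IC50 and % max inhibition from sigmoidal fits.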

[2] = system: NFAT signaling pathway in Jurkat NFAT reporter cells; assay: Jurkat NFAT reporter assay; format: cell-based; settings: Homo sapiens, 30 min with compound, then soluble anti-human CD3/CD28 antibody for 6 hours, luciferase readout, read-out: EC50 (Group)
Outline: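 Jurkat cells bearing an NFAT-RE-driven luciferase reporter (1×10^5 per well) preincubated with Cbl-b inhibitor for 30 min, then stimulated 6 h with soluble anti-CD3/CD28. Luminescence read with Bio-Glo; values are fold change over anti-CD3/CD28-stimulated cells without inhibitor.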

T1 sequence (Q13191 39-426): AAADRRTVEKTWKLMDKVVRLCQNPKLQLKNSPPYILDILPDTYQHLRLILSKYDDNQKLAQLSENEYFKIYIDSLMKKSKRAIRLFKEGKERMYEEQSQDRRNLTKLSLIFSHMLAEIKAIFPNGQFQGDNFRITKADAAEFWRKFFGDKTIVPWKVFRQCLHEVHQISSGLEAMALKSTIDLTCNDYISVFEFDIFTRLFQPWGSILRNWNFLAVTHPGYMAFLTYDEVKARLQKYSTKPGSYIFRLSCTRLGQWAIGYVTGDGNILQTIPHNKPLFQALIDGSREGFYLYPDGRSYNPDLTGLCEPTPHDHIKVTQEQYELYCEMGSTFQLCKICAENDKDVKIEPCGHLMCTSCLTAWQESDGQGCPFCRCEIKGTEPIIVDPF

| IC50 [1] | EC50 [2] | SMILES |
| --- | --- | --- |
| < 80 nM | 1000 to 10000 nM | Cc1cc(CN2CCC3(CC3)C2)cc(N2Cc3ccc(-c4ccc(F)cc4-c4nncn4C)cc3C2=O)n1 [Compound 259] |
| < 80 nM | < 300 nM | Cc1cc(C(C)NCC2CC2)cc(N2Cc3ccc(-c4ccc(F)cc4-c4nncn4C)cc3C2=O)n1 (centres unmarked) [Compound 282, 2-(4-(1-((Cyclopropylmethyl)amino)ethyl)-6-methylpyridin-2-yl)-6-(4-fluoro-2-(4-methyl-4H-1,2,4-triazol-3-yl)phenyl)isoindolin-1-one] |
| 300 to 5000 nM | 1000 to 10000 nM | C[C@H]1CCCN(Cc2cc(N3Cc4ccc(C5(Cc6nncn6C)COC5)cc4C3=O)cc(C(F)(F)F)n2)C1 [Compound 17, (S)-6-(3-((4-Methyl-4H-1,2,4-triazol-3-yl)methyl)oxetan-3-yl)-2-(2-((3-methyl-piperidin-1-yl)methyl)-6-(trifluoromethyl)pyridin-4-yl)isoindolin-1-one] |
| < 80 nM | 1000 to 10000 nM | Cn1cnnc1CC1(c2ccc3c(c2)C(=O)N(c2cc(CNC[C@H]4CCCO4)cc(Cl)n2)C3)COC1 (single isomer, unassigned) [Compound 195] |
| < 80 nM | < 300 nM | Cc1cc(CNCC2CC2)cc(N2Cc3ccc(-c4ccc(Cl)cc4-c4nncn4C)cc3C2=O)n1 [Compound 101, 6-(4-Chloro-2-(4-methyl-4H-1,2,4-triazol-3-yl)phenyl)-2-(4-(((cyclopropylmethyl)amino)methyl)-6-methylpyridin-2-yl)isoindolin-1-one] |
| < 80 nM | 300 to 1000 nM | Cc1cc(CNCCC(C)C)cc(N2Cc3ccc(-c4ccc(F)cc4-c4nncn4C)cc3C2=O)n1 [Compound 300, 6-(4-Fluoro-2-(4-methyl-4H-1,2,4-triazol-3-yl)phenyl)-2-(4-((isopentylamino)-methyl)-6-methylpyridin-2-yl)isoindolin-1-one] |
| < 80 nM | < 300 nM | CC(NC(C)(C)C1CC1)c1cc(Cl)nc(N2Cc3ccc(C4(Cc5nncn5C)COC4)cc3C2=O)c1 (centres unmarked) [Compound 248] |
| < 80 nM | < 300 nM | CC(NC1CCCC1)c1cc(Cl)nc(N2Cc3ccc(-c4ccc(Cl)cc4-c4nncn4C)cc3C2=O)c1 (single isomer, unassigned) [Compound 104, 6-(4-Chloro-2-(4-methyl-4H-1,2,4-triazol-3-yl)phenyl)-2-(6-chloro-4-(1-(cyclo-pentylamino)ethyl)pyridin-2-yl)isoindolin-1-one] |
| 80 to 300 nM | 1000 to 10000 nM | C[C@H]1CCCN(Cc2cc(C3CC3)nc(N3Cc4ccc(C5(Cc6nncn6C)COC5)cc4C3=O)c2)C1 [Compound 73, (S)-2-(6-Cyclopropyl-4-((3-methylpiperidin-1-yl)methyl)pyridin-2-yl)-6-(3-((4-methyl-4H-1,2,4-triazol-3-yl)methyl)oxetan-3-yl)isoindolin-1-one] |
| < 80 nM | 300 to 1000 nM | Cn1cnnc1CC1(c2ccc3c(c2)C(=O)N(c2cc(CNCC4(C)CCC4)cc(Cl)n2)C3)COC1 [Compound 172, 2-(6-Chloro-4-((((1-methylcyclobutyl)methyl)amino)methyl)pyridin-2-yl)-6-(3-((4-methyl-4H-1,2,4-triazol-3-yl)methyl)oxetan-3-yl)isoindolin-1-one] |
| < 80 nM | 1000 to 10000 nM | Cn1cnnc1CC1(c2ccc3c(c2)C(=O)N(c2cc(CNc4nccs4)cc(Cl)n2)C3)COC1 [Compound 237] |
| < 80 nM | < 300 nM | Cc1cc(CNCC2CCC2)cc(N2Cc3ccc(-c4ccc(Cl)cc4-c4nncn4C)cc3C2=O)n1 [Compound 274, 6-(4-Chloro-2-(4-methyl-4H-1,2,4-triazol-3-yl)phenyl)-2-(4-(((cyclobutyl-methyl)amino)methyl)-6-methylpyridin-2-yl)isoindolin-1-one] |
| 80 to 300 nM | 300 to 1000 nM | Cn1cnnc1-c1cc(Cl)ccc1-c1ccc2c(c1)C(=O)N(c1cc(CNC3CCCC3)cc(Cl)n1)C2 [Compound 106, 6-(4-Chloro-2-(4-methyl-4H-1,2,4-triazol-3-yl)phenyl)-2-(6-chloro-4-((cyclo-pentylamino)methyl)pyridin-2-yl)isoindolin-1-one] |
| < 80 nM | < 300 nM | [2H]C([2H])([2H])n1cnnc1-c1cc(F)ccc1-c1ccc2c(c1)C(=O)N(c1cc(CNCC3CC3)cc(C)n1)C2 [Compound 310, 2-(4-(((Cyclopropylmethyl)amino)methyl)-6-methylpyridin-2-yl)-6-(4-fluoro-2-(4-(methyl-d3)-4H-1,2,4-triazol-3-yl)phenyl)isoindolin-1-one] |
| < 80 nM | < 300 nM | Cc1cc(CNCC2CCC2)cc(N2Cc3ccc(-c4ccc(F)cc4-c4nncn4C)cc3C2=O)n1 [Compound 134, 2-(4-(((Cyclobutylmethyl)amino)methyl)-6-methylpyridin-2-yl)-6-(4-fluoro-2-(4-methyl-4H-1,2,4-triazol-3-yl)phenyl)isoindolin-1-one] |
| < 80 nM | < 300 nM | Cn1cnnc1-c1cc(F)ccc1-c1ccc2c(c1)C(=O)N(c1cc(CNCC3CC3)cc(C(F)(F)F)n1)C2 [Compound 265, 2-(4-(((Cyclopropylmethyl)amino)methyl)-6-(trifluoromethyl)pyridin-2-yl)-6-(4-fluoro-2-(4-methyl-4H-1,2,4-triazol-3-yl)phenyl)isoindolin-1-one] |
| < 80 nM | < 300 nM | C[C@H](Cc1nncn1C)c1ccc2c(c1)C(=O)N(c1cc(CNCC3CCC3)cc(Cl)n1)C2 (single isomer, unassigned) [Compound 170] |
| < 80 nM | 1000 to 10000 nM | Cc1cc(CNCCC(F)(F)F)cc(N2Cc3ccc(-c4ccc(F)cc4-c4nncn4C)cc3C2=O)n1 [Compound 326, 6-(4-Fluoro-2-(4-methyl-4H-1,2,4-triazol-3-yl)phenyl)-2-(6-methyl-4-(((3,3,3-trifluoropropyl)amino)methyl)pyridin-2-yl)isoindolin-1-one] |
| < 80 nM | < 300 nM | C[C@H]1CCCN(Cc2cc(Cl)nc(N3Cc4ccc(C5(Cc6nncn6C)CCC5)cc4C3=O)c2)C1 [Compound 89, (S)-2-(6-Chloro-4-((3-methylpiperidin-1-yl)methyl)pyridin-2-yl)-6-(1-((4-methyl-4H-1,2,4-triazol-3-yl)methyl)cyclobutyl)isoindolin-1-one] |
| < 80 nM | 300 to 1000 nM | Cn1cnnc1CC1(c2ccc3c(c2)C(=O)N(c2cc(CNCC4CC4(F)F)cc(Cl)n2)C3)CC(C#N)C1 (centres unmarked) [Compound 230, 3-(2-(6-Chloro-4-((((2,2-difluorocyclopropyl)methyl)amino)methyl)pyridin-2-yl)-3-oxoisoindolin-5-yl)-3-((4-methyl-4H-1,2,4-triazol-3-yl)methyl)cyclobutane-1-carbonitrile] |
| < 80 nM | < 300 nM | CC(NCC1CCC1)c1cc(Cl)nc(N2Cc3ccc(-c4ccc(Cl)cc4-c4nncn4C)cc3C2=O)c1 (centres unmarked) [Compound 107, 6-(4-Chloro-2-(4-methyl-4H-1,2,4-triazol-3-yl)phenyl)-2-(6-chloro-4-(1-((cyclo-butylmethyl)amino)ethyl)pyridin-2-yl)isoindolin-1-one] |
| < 80 nM | 300 to 1000 nM | CC1CN(Cc2cc(Cl)nc(N3Cc4ccc(C5(Cc6nncn6C)COC5)cc4C3=O)c2)CCC1(F)F (centres unmarked) [Compound 178] |
